This test deals with P388 leukemia ip, CD2F1 mice, survival T/C. The test can be described thus: NCI In Vivo Anticancer Drug Screen. Data for tumor model P388 Leukemia (intraperitoneal) in CD2F1 (CDF1) mice. As to conditions: endpoint: median survival time, higher = longer survival. The gist of the method:
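Mice carrying the transplanted tumor received test compound or vehicle. Survival was recorded in each group, and the value is the treated-group measurement divided by that of the vehicle-treated control group.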

The mark [1] stands for this setting: dose: 100.0 mg/kg/injection, schedule: Q04DX003 (ip), vehicle: saline with Tween-80.
[2] abbreviates: dose: 200.0 mg/kg/injection, schedule: Q04DX003 (ip), vehicle: saline with Tween-80.
Setting [3] is: dose: 400.0 mg/kg/injection, schedule: Q04DX003 (ip), vehicle: saline with Tween-80.
Where [4] appears, read: dose: 60.0 mg/kg/injection, schedule: Q01DX005 (ip), vehicle: saline with Tween-80.
The mark [5] stands for this setting: dose: 120.0 mg/kg/injection, schedule: Q01DX005 (ip), vehicle: saline with Tween-80.
Where [6] appears, read: dose: 240.0 mg/kg/injection, schedule: Q01DX005 (ip), vehicle: saline with Tween-80.
The mark [7] stands for this setting: dose: 50.0 mg/kg/injection, schedule: Q01DX005 (ip), vehicle: saline with Tween-80.
The mark [8] stands for this setting: dose: 100.0 mg/kg/injection, schedule: Q01DX005 (ip), vehicle: saline with Tween-80.
[9] abbreviates: dose: 100.0 mg/kg/injection, schedule: Q01DX009 (ip), vehicle: Klucel (hydroxypropylcellulose) (HPC).
Where [10] appears, read: dose: 200.0 mg/kg/injection, schedule: Q01DX009 (ip), vehicle: Klucel (hydroxypropylcellulose) (HPC).
The mark [11] stands for this setting: dose: 50.0 mg/kg/injection, schedule: Q01DX005 (ip), vehicle: Klucel (hydroxypropylcellulose) (HPC).
Setting [12] is: dose: 100.0 mg/kg/injection, schedule: Q01DX005 (ip), vehicle: Klucel (hydroxypropylcellulose) (HPC).
Where [13] appears, read: dose: 200.0 mg/kg/injection, schedule: Q01DX005 (ip), vehicle: Klucel (hydroxypropylcellulose) (HPC).
[14] abbreviates: dose: 50.0 mg/kg/injection, schedule: Q01DX009 (ip), vehicle: Klucel (hydroxypropylcellulose) (HPC).

Each structure is given as a SMILES string. Where “and” joins values, the source holds several entries; their conditions need not be identical. Identical values can stand only once. Inconclusive results and toxic doses are left out.

Regarding `CCCc1nnc2n1NC1(CS2)Nc2ccccc2N1`, the T/C by setting is: (dose: 100.0 mg/kg/injection, schedule: Q01DX001 (ip), vehicle: saline with Tween-80) 98 % of control; (dose: 200.0 mg/kg/injection, schedule: Q01DX001 (ip), vehicle: saline with Tween-80) 97 % of control; (dose: 400.0 mg/kg/injection, schedule: Q01DX001 (ip), vehicle: saline with Tween-80) 95 % of control.
On to `CC(c1ccccc1)N1COc2ccc3ccccc3c2C1` (configuration not stated), for which the T/C was 95 % of control under setting [1], 95 % of control under setting [2] and 95 % of control under setting [3].
Take `CCC1(C(=O)c2ccccc2)C(C(=O)OC)=NC(=N)N=C1C(=O)OC` (configuration not stated): the T/C was 100 % of control under setting [4] and 95 % of control under setting [5].
In the case of `FC(F)(F)c1ccc2c(c1)N=C(NNC1=Nc3cc(C(F)(F)F)ccc3SC1)CS2`, the T/C was 91 % of control (dose: 15.0 mg/kg/injection, schedule: Q01DX005 (ip), vehicle: saline with Tween-80) and 86 % of control (dose: 30.0 mg/kg/injection, schedule: Q01DX005 (ip), vehicle: saline with Tween-80).
Consider `COc1ccc2c(=O)c(Cc3ccccc3)coc2c1`, for which the T/C under setting [4] was 100 % of control, the T/C under setting [5] is 97 % of control and the T/C under setting [6] was 100 % of control.
As for `O=C1CC[S][Sn][O]1`, the T/C is 100 % of control under setting [1], 95 % of control under setting [2] and 95 % of control under setting [3].
Turning to `C/[N+]([O-])=N\Nc1ccccc1SCCSc1ccccc1N/N=[N+](\C)[O-]`, the T/C is 91 % of control (dose: 60.0 mg/kg/injection, schedule: Q01DX005 (ip), vehicle: Klucel (hydroxypropylcellulose) (HPC)) and 89 % of control (dose: 120.0 mg/kg/injection, schedule: Q01DX005 (ip), vehicle: Klucel (hydroxypropylcellulose) (HPC)).
`CN1C2Cc3cc4c(cc3[C@@]23Cc2ccc5c(c2[C@@H]1O3)OCO5)OCO4` (some centres not stated): the T/C (dose: 8.0 mg/kg/injection, schedule: Q01DX005 (ip), vehicle: Klucel (hydroxypropylcellulose) (HPC)) was 94 % of control; the T/C (dose: 16.0 mg/kg/injection, schedule: Q01DX005 (ip), vehicle: Klucel (hydroxypropylcellulose) (HPC)) is 109 % of control; the T/C (dose: 32.0 mg/kg/injection, schedule: Q01DX005 (ip), vehicle: Klucel (hydroxypropylcellulose) (HPC)) was 94 % of control; the T/C (dose: 64.0 mg/kg/injection, schedule: Q01DX005 (ip), vehicle: Klucel (hydroxypropylcellulose) (HPC)) is 98 % of control.
With `CCNC(=O)N1CC(=O)Nc2ccccc21`, the T/C was 101 % of control under setting [7] and 96 % of control under setting [8].
With `Cc1ccc2c(c1)C(=O)CC=C(C(=O)O)N2`, the T/C under setting [9] was 98 % of control; the T/C under setting [10] was 104 % of control; the T/C (dose: 400.0 mg/kg/injection, schedule: Q01DX009 (ip), vehicle: Klucel (hydroxypropylcellulose) (HPC)) is 111 % of control; the T/C (dose: 600.0 mg/kg/injection, schedule: Q01DX009 (ip), vehicle: Klucel (hydroxypropylcellulose) (HPC)) was 89 % of control.
Take `Cc1ccc(C(=O)CC2(O)C(=O)Nc3c(Cl)cc(Cl)cc32)cc1` (configuration not stated): the T/C runs as follows: under setting [4], 103 % of control; under setting [5], 108 % of control; under setting [6], 100 % of control.
For `c1ccc(CN2COCO[C@H]3CCC[C@@H]32)cc1`, the T/C under setting [11] is 107 % of control and the T/C under setting [12] is 104 % of control.
In the case of `Cc1cnc2cc(Cl)ccc2c1NCCNCCO`, the T/C (dose: 50.0 mg/kg/injection, schedule: Q01DX005 (ip), vehicle: saline) is 119 % of control and the T/C (dose: 100.0 mg/kg/injection, schedule: Q01DX005 (ip), vehicle: saline) was 119 % of control.
`CN(C)CC(Cl)CCl` (configuration not stated): the T/C by setting is: (dose: 50.0 mg/kg/injection, schedule: Q04DX003 (ip), vehicle: saline) 109 % of control; (dose: 100.0 mg/kg/injection, schedule: Q04DX003 (ip), vehicle: saline) 109 % of control; (dose: 200.0 mg/kg/injection, schedule: Q01DX009 (ip), vehicle: saline) 195 % of control.
In the case of `c1ccc2c(c1)nnc1ccccc12`, the T/C is, setting by setting: (dose: 50.0 mg/kg/injection, schedule: Q01DX005 (ip), vehicle: Klucel + Tween-80) 102 % of control; (dose: 100.0 mg/kg/injection, schedule: Q01DX005 (ip), vehicle: Klucel + Tween-80) 96 % of control; (dose: 200.0 mg/kg/injection, schedule: Q01DX005 (ip), vehicle: Klucel + Tween-80) 102 % of control.
Take `CNC(=O)Oc1c(C)[nH]ccc1=O`: the T/C (dose: 400.0 mg/kg/injection, schedule: Q01DX009 (ip), vehicle: saline) is 107 % of control.
Consider `CC1(C(O)CO)C=C2CCC3C(C)(C)C(O)CCC3(C)C2CC1` (configuration not stated), for which the T/C was 108 % of control (dose: 2.25 mg/kg/injection, schedule: Q01DX009 (ip), vehicle: Klucel (hydroxypropylcellulose) (HPC)); 103 % of control (dose: 4.5 mg/kg/injection, schedule: Q01DX009 (ip), vehicle: Klucel (hydroxypropylcellulose) (HPC)); 103 % of control (dose: 9.0 mg/kg/injection, schedule: Q01DX009 (ip), vehicle: Klucel (hydroxypropylcellulose) (HPC)); 93 % of control (dose: 18.0 mg/kg/injection, schedule: Q01DX009 (ip), vehicle: Klucel (hydroxypropylcellulose) (HPC)).
Turning to `CC(C)(C)COCC(O)Cn1cnc2c(N)ncnc21` (configuration not stated), the T/C under setting [11] was 100 % of control, the T/C under setting [12] was 97 % of control and the T/C under setting [13] is 91 % of control.
Take `COc1ccccc1C(=O)c1ccccc1C(=O)O`: the T/C runs as follows: under setting [11], 101 % of control; under setting [12], 105 % of control; under setting [13], 103 % of control.
For `CC1(C)OC2CC(=O)OCC23C1CC(O)C1(C)C3CCC2(C)C(c3ccoc3)OC(=O)C3OC321` (configuration not stated), the T/C by setting is: (dose: 0.75 mg/kg/injection, schedule: Q01DX009 (ip), vehicle: saline + alcohol) 99 % of control; (dose: 1.5 mg/kg/injection, schedule: Q01DX009 (ip), vehicle: saline + alcohol) 99 % of control; (dose: 3.0 mg/kg/injection, schedule: Q01DX009 (ip), vehicle: saline + alcohol) 97 % of control; (dose: 6.0 mg/kg/injection, schedule: Q01DX009 (ip), vehicle: saline + alcohol) 97 % of control; (dose: 100.0 mg/kg/injection, schedule: Q04DX002 (ip), vehicle: saline with Tween-80) 103 % of control and 98 % of control; (dose: 200.0 mg/kg/injection, schedule: Q04DX002 (ip), vehicle: saline with Tween-80) 101 % of control and 100 % of control. Besides, under “dose: 400.0 mg/kg/injection, schedule: Q04DX002 (ip), vehicle: saline with Tween-80”, the T/C was 91 % of control and 92 % of control.
With `CN(CCl)S(=O)(=O)c1ccccc1`, the T/C by setting is: (dose: 100.0 mg/kg/injection, schedule: Q01DX009 (ip), vehicle: saline with Tween-80) 90 % of control; (dose: 200.0 mg/kg/injection, schedule: Q01DX009 (ip), vehicle: saline with Tween-80) 100 % of control; (dose: 400.0 mg/kg/injection, schedule: Q01DX009 (ip), vehicle: saline with Tween-80) 105 % of control.
On to `C=CCCc1cc(OC)ccc1C(=O)C(C)C`, for which the T/C by setting is: (dose: 25.0 mg/kg/injection, schedule: Q01DX009 (ip), vehicle: Klucel (hydroxypropylcellulose) (HPC)) 100 % of control; under setting [7], 99 % of control; under setting [14], 104 % of control; under setting [8], 107 % of control; under setting [9], 102 % of control; (dose: 200.0 mg/kg/injection, schedule: Q01DX005 (ip), vehicle: saline with Tween-80) 100 % of control. Under setting [10], the T/C was 104 % of control.
For the molecule `O=C(Nc1c(Cl)cccc1Cl)OC1CCCCCCCCCCC1`, the T/C under setting [14] was 100 % of control, the T/C under setting [9] was 92 % of control and the T/C under setting [10] is 86 % of control.
In the case of `Cc1nccc2c(C)c3c(cc12)c1ccccc1n3C`, the T/C runs as follows: (dose: 5.0 mg/kg/injection, schedule: Q01DX005 (ip), vehicle: saline) 107 % of control; (dose: 10.0 mg/kg/injection, schedule: Q01DX005 (ip), vehicle: saline) 107 % of control; (dose: 20.0 mg/kg/injection, schedule: Q01DX005 (ip), vehicle: saline) 99 % of control.
Consider `O=S(=O)(O)OOS(=O)(=O)O`, for which the T/C under setting [14] is 100 % of control and the T/C under setting [9] is 87 % of control.

The record behind these values is PubChem BioAssay AID330 (DTP/NCI, 2004).
